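1) Cells in 96-well plates. 2) Compound, 48 h, 5 concentrations. 3) Linear interpolation between surrounding doses. 4) Unreached endpoint = highest concentration. The concentration for 50% growth inhibition is given as GI50.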 Calls of active or inactive are those of the source. No stated cut-off is given here; in the data, active = GI50 up to about 1.1 µM and inactive = higher.
Tests used:
Assay in all cases: NCI tumour cell line growth inhibition, 48 h
[1] = tested on: 786-0
[2] = tested on: HCT-116
[3] = tested on: HOP-92
[4] = tested on: HT-29
[5] = tested on: NCI-H23
[6] = tested on: NCI-H522
[7] = tested on: OVCAR-5
[8] = tested on: OVCAR-8
[9] = tested on: RPMI-8226
[10] = tested on: SF-268
[11] = tested on: SF-295
[12] = tested on: SK-MEL-2
[13] = tested on: SN12C
[14] = tested on: SNB-19
[15] = tested on: SNB-75
[16] = tested on: EKVX
[17] = tested on: UACC-257

Measured: GI50

CN1OC(CO)CC12C1CC3CC(C1)CC2C3 (configuration not stated)
inactive: [1] > 100 µM | [2] > 100 µM | [3] > 100 µM | [4] > 100 µM | [5] > 100 µM | [6] > 100 µM | [7] > 100 µM | [8] > 100 µM | [9] > 100 µM | [10] > 100 µM | [11] > 100 µM | [12] > 100 µM | [13] > 100 µM | [14] > 100 µM | [15] > 100 µM

CCC/C(=N/NC(=O)C(N)=O)C(CC)C(=O)CCC(=O)N(Cc1ccccc1)Cc1ccccc1 (configuration not stated)
inactive: [1] > 100 µM | [16] > 100 µM | [2] > 100 µM | [3] > 100 µM | [4] > 100 µM | [5] > 100 µM | [6] > 100 µM | [7] > 100 µM | [8] > 100 µM | [9] > 100 µM | [10] > 100 µM | [11] > 100 µM | [12] > 100 µM | [13] > 100 µM | [14] > 100 µM | [15] > 100 µM | [17] > 100 µM

C/C(=N\NC(=S)NC(CCC(=O)O)C(=O)O)c1cnccn1 (configuration not stated)
inactive: [1] > 100 µM | [16] > 100 µM | [2] > 100 µM | [3] > 100 µM | [4] > 100 µM | [5] > 100 µM | [6] > 100 µM | [7] > 100 µM | [8] > 100 µM | [9] > 100 µM | [10] > 100 µM | [11] > 100 µM | [12] > 100 µM | [13] > 100 µM | [14] > 100 µM | [15] > 100 µM | [17] > 100 µM

C=CCN1C(=O)C/C(=C2/CCC(=O)N2CC=C)C1=O
inactive: [1] > 100 µM | [16] > 100 µM | [2] > 100 µM | [3] > 100 µM | [4] > 100 µM | [5] > 100 µM | [6] > 100 µM | [7] > 100 µM | [8] > 100 µM | [10] > 100 µM | [11] > 100 µM | [12] > 100 µM | [13] > 100 µM | [14] > 100 µM | [15] > 100 µM | [17] > 100 µM

Cc1ccc(S(=O)(=O)N/N=C(\CCN2CCCC2)CC(c2ccccc2)c2c(O)c3ccccc3oc2=O)cc1 (configuration not stated)
inactive: [1] > 100 µM | [16] > 100 µM | [2] > 100 µM | [3] 72.3 µM | [4] > 100 µM | [5] > 100 µM | [6] 99.5 µM | [7] > 100 µM | [8] > 100 µM | [9] > 100 µM | [10] > 100 µM | [11] > 100 µM | [12] > 100 µM | [13] > 100 µM | [14] > 100 µM | [15] > 100 µM | [17] > 100 µM

O=C(CCC(=O)Nc1ccc(Cl)cc1)CC(=O)c1ccc(F)cc1
inactive: [1] > 100 µM | [2] > 100 µM | [3] > 100 µM | [4] > 100 µM | [5] > 100 µM | [6] > 100 µM | [7] > 100 µM | [8] > 100 µM | [9] > 100 µM | [10] > 100 µM | [11] > 100 µM | [12] > 100 µM | [13] > 100 µM | [14] > 100 µM | [15] > 100 µM | [17] > 100 µM

O=C(Cc1ccccc1[N+](=O)[O-])C(CO)c1ccccc1[N+](=O)[O-] (configuration not stated)
inactive: [1] > 100 µM | [16] 70.6 µM | [2] 70.5 µM | [3] 23.6 µM | [4] 26.2 µM | [5] 45.3 µM | [6] 16.8 µM | [7] > 100 µM | [8] 89.5 µM | [9] 78.7 µM | [10] 35.2 µM | [11] > 100 µM | [12] > 100 µM | [13] > 100 µM | [14] > 100 µM | [15] 67.3 µM | [17] 72.3 µM

C=CCN(N=O)C(=O)N(CCCCC(NC(C)=O)C(=O)NCc1ccccc1)Cc1ccccc1 (configuration not stated)
inactive: [1] 28.6 µM | [16] 38.1 µM | [3] 13.1 µM | [4] 19.5 µM | [5] 46.5 µM | [6] 15.1 µM | [7] > 100 µM | [8] 35.2 µM | [9] 16.1 µM | [10] 41.9 µM | [11] 31 µM | [12] 37.1 µM | [13] 41.5 µM | [14] 51.5 µM | [15] 38.4 µM | [17] 36.1 µM

O=C1C2=C(SCCS2)C(=O)c2ccccc21
inactive: [1] 1.74 µM | [16] 1.39 µM | [2] 1.67 µM | [3] 1.68 µM | [4] 2.18 µM | [5] 1.85 µM | [6] 1.76 µM | [7] 1.83 µM | [8] 1.67 µM | [9] 1.79 µM | [10] 1.66 µM | [11] 1.76 µM | [12] 1.99 µM | [13] 1.95 µM | [14] 1.54 µM | [15] 1.67 µM | [17] 1.95 µM

CC(C)(C)C1=Cc2cc3cc(C(C)(C)C)[nH]c(=O)c3cc2S(=O)(=O)N1
inactive: [1] 26.2 µM | [16] 17.3 µM | [2] 20.5 µM | [3] 16.7 µM | [4] 22.9 µM | [5] 29.9 µM | [6] 15.3 µM | [7] 33.7 µM | [8] 39.8 µM | [9] 30.3 µM | [10] 26.1 µM | [11] 28.5 µM | [12] 18.7 µM | [13] 42.7 µM | [14] 36.4 µM | [15] 37.8 µM | [17] 25.1 µM

O=C1NC(=O)C2C(=O)NC(=O)C1C2(c1ccccc1)c1cc[nH]c1 (configuration not stated)
inactive: [1] > 100 µM | [16] > 100 µM | [3] > 100 µM | [4] > 100 µM | [5] > 100 µM | [6] > 100 µM | [7] > 100 µM | [8] > 100 µM | [9] > 100 µM | [10] > 100 µM | [11] > 100 µM | [12] > 100 µM | [13] > 100 µM | [14] > 100 µM | [15] > 100 µM | [17] > 100 µM

N#CC(C(=O)/C(=N\Nc1nc(S)nn1N)C(C#N)c1ccc(Cl)cc1)c1ccc(Cl)cc1 (configuration not stated)
inactive: [1] > 100 µM | [16] > 100 µM | [2] > 100 µM | [3] > 100 µM | [4] > 100 µM | [5] > 100 µM | [7] > 100 µM | [8] > 100 µM | [9] > 100 µM | [10] > 100 µM | [11] > 100 µM | [12] > 100 µM | [13] > 100 µM | [14] > 100 µM | [15] > 100 µM | [17] > 100 µM
